Laboratory results reported in paper PMC5031509 (ACS chemical neuroscience, 2016).

What was measured:
rat mGlu4 = rat mGlu4 (Rattus norvegicus, UniProt P31423); experiment: functional assay using the rat mGlu4 protein; format: cell-based
[1] = plasma protein binding, rat; format: in vitro ADME
[2] = plasma protein binding, human; format: in vitro ADME
[3] = plasma protein binding, dog; format: in vitro ADME
[4] = plasma protein binding, mouse; format: in vitro ADME
[5] = plasma protein binding, rhesus; format: in vitro ADME; conditions: rhesus monkey
CYP1A2 [6] = target: T1, CYP1A2 (Homo sapiens, UniProt P05177); experiment: CYP450 inhibition, cocktail approach in human liver microsomes; format: in vitro ADME
T1 sequence (P05177 1-516): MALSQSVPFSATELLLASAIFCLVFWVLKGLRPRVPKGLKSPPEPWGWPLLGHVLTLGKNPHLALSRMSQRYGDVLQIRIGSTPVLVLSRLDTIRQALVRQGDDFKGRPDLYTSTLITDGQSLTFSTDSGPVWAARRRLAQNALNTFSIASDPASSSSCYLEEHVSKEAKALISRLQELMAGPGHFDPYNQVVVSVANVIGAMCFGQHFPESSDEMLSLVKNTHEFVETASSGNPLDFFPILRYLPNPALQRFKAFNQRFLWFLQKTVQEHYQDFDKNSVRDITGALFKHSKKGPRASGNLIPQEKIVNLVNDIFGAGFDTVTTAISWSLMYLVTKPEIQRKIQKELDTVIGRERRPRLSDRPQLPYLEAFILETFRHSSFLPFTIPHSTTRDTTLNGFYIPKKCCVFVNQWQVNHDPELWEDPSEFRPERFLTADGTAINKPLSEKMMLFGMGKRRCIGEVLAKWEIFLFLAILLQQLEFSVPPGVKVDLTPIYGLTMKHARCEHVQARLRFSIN

CYP2C9 = CYP2C9 (Homo sapiens, UniProt P11712); experiment: as above; format: in vitro ADME
CYP2D6 = CYP2D6 (Homo sapiens, UniProt P10635); experiment: as above; format: in vitro ADME
CYP3A4 = CYP3A4 (Homo sapiens, UniProt P08684); experiment: as above; format: in vitro ADME
CYP2C19 = CYP2C19 (Homo sapiens, UniProt P33261); experiment: CYP450 inhibition; format: in vitro ADME
[7] = in vivo PK, rhesus IV cassette; conditions: rhesus monkey, plasma
[8] = plasma/brain PO snapshot study in rats; format: in vivo, rat
P-glycoprotein (Pgp) = P-glycoprotein (Pgp) (Homo sapiens, UniProt P08183); experiment: Permeability; format: in vitro ADME
mGlu6 = mGlu6 (Homo sapiens, UniProt O15303); experiment: mGlu selectivity assays in fold-shift format; format: cell-based
[9] = tested on: panel of GPCRs, enzymes, ion channels, nuclear hormone receptors and transporters; experiment: wider selectivity panel; conditions: all targets except MAO-B
[10] = target: T2, monoamine oxidase-B (MAO-B) (Homo sapiens, UniProt P27338); experiment: wider selectivity panel, MAO-B
T2 sequence (P27338 1-520): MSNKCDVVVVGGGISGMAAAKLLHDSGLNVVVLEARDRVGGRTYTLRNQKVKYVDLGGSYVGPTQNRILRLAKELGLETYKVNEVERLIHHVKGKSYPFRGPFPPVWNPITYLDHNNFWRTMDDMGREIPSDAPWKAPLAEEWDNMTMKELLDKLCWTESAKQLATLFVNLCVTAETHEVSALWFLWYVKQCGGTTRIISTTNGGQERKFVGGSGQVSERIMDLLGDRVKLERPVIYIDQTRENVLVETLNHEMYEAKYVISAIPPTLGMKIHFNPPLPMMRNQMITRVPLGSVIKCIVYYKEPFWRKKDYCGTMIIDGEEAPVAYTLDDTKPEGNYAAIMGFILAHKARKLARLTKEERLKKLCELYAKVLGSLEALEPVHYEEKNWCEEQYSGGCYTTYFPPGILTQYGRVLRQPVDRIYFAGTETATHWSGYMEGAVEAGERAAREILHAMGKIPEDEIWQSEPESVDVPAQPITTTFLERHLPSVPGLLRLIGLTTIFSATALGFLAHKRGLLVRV

[11] = tested on: panel of 96 kinase targets; experiment: DiscoveRx KINOMEscan kinase panel; format: binding
[12] = tested on: nine cardiac ion channels (including hERG); experiment: ChanTest Cardiac Channel Panel IC50 screen; conditions: human
CYP1A2 [13] = experiment: CYP1A2 induction in cryopreserved hepatocytes; format: cell-based, human
Met ID = format: in vitro ADME; conditions: rat liver microsomes
in vivo [14] = conditions: rat, iv, 1 mg/kg
in vivo [15] = conditions: rat, po, 10 mg/kg

Chain of P-glycoprotein (Pgp) (P08183 whole entry): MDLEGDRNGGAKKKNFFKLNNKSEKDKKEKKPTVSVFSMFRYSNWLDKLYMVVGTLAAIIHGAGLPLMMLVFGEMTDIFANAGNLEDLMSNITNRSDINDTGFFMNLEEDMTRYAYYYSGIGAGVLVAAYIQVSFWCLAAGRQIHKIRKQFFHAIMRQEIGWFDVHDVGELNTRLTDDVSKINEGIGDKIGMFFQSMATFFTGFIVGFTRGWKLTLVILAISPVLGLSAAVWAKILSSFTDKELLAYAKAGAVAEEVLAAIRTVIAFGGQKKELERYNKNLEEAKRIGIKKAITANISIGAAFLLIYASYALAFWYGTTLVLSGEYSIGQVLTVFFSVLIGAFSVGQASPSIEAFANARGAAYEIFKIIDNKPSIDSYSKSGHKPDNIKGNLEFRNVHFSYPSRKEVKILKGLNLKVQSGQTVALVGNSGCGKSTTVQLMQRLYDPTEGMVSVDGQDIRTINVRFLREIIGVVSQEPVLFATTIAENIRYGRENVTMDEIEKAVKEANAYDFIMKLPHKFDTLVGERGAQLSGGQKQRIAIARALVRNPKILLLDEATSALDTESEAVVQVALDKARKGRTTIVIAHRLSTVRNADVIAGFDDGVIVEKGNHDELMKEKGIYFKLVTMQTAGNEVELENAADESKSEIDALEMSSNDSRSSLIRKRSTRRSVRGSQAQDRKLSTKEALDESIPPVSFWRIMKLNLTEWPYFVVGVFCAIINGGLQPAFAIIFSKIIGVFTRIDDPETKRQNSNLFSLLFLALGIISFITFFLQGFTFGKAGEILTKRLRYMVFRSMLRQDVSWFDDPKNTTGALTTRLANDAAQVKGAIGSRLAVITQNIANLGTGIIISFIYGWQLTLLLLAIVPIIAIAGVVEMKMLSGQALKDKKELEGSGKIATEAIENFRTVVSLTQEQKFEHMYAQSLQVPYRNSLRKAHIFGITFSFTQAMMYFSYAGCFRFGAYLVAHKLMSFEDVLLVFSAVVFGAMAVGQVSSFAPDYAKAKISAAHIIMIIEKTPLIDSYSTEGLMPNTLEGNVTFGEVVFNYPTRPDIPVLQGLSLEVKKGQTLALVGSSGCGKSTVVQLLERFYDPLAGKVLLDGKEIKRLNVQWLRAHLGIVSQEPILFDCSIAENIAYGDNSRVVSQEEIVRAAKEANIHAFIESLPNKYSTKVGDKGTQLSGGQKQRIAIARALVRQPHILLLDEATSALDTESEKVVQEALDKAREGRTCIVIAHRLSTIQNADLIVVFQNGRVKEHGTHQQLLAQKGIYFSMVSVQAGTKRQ
Chain of rat mGlu4 (P31423 33-912): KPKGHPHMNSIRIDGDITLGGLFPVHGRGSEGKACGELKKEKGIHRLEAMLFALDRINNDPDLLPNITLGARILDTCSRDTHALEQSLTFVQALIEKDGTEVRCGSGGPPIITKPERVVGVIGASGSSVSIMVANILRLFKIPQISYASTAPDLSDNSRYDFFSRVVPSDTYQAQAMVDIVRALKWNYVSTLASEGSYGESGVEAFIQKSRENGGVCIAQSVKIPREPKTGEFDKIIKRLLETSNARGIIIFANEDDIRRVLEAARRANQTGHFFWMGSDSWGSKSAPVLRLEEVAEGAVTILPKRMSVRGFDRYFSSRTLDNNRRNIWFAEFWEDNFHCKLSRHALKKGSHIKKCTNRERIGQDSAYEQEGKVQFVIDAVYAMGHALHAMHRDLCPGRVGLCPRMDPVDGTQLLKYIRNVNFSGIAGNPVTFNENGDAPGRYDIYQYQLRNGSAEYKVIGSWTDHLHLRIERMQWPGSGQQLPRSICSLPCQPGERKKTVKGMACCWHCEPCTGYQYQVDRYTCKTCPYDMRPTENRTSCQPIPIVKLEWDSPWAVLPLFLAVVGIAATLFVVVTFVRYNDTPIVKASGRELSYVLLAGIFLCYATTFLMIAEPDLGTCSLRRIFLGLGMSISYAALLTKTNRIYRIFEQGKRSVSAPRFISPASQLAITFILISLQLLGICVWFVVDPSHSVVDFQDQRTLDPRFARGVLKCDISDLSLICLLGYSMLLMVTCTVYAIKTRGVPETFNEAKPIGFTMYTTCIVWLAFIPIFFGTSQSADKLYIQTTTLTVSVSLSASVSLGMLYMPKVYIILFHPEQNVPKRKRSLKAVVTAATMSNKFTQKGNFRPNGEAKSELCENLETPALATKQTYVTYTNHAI
Chain of CYP3A4 (P08684 whole entry): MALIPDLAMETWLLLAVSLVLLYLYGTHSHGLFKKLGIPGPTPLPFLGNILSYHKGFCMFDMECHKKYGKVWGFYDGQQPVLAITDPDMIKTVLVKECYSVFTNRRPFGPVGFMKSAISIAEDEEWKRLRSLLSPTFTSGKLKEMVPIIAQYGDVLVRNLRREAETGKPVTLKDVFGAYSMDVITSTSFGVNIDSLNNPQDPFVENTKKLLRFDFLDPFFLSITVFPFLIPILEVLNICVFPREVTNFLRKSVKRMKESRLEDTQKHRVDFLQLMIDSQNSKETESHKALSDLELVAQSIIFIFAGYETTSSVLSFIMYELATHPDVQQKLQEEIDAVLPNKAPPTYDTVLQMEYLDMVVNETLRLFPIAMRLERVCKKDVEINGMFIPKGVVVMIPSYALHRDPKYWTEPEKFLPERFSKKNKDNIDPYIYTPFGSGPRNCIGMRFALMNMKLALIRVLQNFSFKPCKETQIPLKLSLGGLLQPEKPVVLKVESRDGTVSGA
Chain of mGlu6 (O15303 25-877): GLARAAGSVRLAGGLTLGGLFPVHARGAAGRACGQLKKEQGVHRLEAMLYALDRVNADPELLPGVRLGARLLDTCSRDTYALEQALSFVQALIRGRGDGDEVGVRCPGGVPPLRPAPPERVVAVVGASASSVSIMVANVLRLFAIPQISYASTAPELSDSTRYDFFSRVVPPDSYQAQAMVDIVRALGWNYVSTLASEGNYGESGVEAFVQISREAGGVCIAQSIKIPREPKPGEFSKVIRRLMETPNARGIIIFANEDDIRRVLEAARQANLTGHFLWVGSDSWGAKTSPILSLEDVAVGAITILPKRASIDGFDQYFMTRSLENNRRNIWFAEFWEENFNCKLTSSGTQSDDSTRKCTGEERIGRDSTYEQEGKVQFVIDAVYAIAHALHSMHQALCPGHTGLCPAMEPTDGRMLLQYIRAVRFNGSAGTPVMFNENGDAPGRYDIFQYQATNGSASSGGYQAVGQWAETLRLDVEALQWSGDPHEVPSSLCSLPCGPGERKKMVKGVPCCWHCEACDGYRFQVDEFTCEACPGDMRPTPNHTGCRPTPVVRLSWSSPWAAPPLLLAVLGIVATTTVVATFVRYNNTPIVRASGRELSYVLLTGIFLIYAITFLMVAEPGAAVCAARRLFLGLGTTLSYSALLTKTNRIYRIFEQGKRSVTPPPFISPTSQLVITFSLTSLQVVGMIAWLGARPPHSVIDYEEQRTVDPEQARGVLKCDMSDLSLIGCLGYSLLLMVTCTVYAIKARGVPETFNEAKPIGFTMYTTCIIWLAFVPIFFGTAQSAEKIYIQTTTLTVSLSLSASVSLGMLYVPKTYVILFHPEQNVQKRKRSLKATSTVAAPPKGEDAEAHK
Chain of CYP2C19 (P33261 whole entry): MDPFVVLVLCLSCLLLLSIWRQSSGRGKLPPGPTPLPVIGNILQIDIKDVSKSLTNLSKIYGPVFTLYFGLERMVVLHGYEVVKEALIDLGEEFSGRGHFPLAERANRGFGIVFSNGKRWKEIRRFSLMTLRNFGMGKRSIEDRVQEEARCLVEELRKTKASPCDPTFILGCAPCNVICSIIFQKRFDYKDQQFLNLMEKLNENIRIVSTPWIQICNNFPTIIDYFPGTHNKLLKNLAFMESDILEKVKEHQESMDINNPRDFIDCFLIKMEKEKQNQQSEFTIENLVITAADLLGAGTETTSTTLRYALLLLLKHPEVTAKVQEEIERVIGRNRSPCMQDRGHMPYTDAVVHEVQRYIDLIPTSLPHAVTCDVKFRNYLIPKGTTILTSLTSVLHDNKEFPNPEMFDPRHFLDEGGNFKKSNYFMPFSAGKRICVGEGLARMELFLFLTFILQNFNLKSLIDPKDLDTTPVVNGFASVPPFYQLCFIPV
Chain of CYP2C9 (P11712 whole entry): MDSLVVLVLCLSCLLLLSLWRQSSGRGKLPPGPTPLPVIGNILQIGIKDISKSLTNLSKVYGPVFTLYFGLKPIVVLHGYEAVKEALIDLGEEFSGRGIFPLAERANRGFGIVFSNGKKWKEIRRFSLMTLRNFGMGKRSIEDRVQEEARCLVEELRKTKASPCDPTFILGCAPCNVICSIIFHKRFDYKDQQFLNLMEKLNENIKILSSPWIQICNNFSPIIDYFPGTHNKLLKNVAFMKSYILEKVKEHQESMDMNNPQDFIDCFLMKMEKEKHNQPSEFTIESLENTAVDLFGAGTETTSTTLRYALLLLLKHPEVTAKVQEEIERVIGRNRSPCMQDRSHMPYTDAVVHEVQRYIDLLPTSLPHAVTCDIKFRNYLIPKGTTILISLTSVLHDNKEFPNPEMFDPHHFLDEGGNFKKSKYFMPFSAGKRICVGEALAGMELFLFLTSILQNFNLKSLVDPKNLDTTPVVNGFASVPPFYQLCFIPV
Chain of CYP2D6 (P10635 whole entry): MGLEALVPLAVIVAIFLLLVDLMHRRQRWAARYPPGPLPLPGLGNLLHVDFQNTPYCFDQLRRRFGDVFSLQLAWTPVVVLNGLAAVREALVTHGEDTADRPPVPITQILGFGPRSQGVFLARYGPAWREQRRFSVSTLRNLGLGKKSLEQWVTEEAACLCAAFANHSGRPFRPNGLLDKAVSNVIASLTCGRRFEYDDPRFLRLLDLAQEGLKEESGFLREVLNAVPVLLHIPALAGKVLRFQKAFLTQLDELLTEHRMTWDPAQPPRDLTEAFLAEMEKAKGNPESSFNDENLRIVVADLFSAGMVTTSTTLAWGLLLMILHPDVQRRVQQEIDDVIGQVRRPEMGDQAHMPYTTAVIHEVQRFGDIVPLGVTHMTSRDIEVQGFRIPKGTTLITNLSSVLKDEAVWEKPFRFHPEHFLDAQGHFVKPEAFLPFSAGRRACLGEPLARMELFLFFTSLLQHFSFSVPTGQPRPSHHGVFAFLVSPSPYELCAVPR

Which EC50 (rat mGlu4) does the source give for `Fc1ccc(Nc2n[nH]c3cccnc23)cc1Cl` [Compound 26, N-(3-chloro-4-fluorophenyl)-1H-pyrazolo[4,3-b]pyridin-3-amine] here?
Its EC50 is 0.046 µM.

And the fraction unbound ([1]; plasma protein binding (%Fu))?
Its fraction unbound is 0.028.

What about the fraction unbound ([1]; plasma protein binding (Fu), rat plasma, fraction unbound) of the same compound?
The fraction unbound was 0.028.

And the “plasma protein binding (%Fu)” value [2]?
Its value is 1.7%.

And the fraction unbound ([2]; plasma)?
The fraction unbound was 0.017.

And the fraction unbound [3]?
The fraction unbound was 0.009.

And the fraction unbound [4]?
The fraction unbound was 0.019.

And the fraction unbound [5]?
The fraction unbound was 0.014.

And the IC50 (CYP1A2 [6])?
Its IC50 is under 0.1 µM.

What about the IC50 (CYP2C9) of the same compound?
Its IC50 is 8.9 µM.

What about the IC50 (CYP2D6) of the same compound?
The IC50 was over 30 µM.

And the IC50 (CYP3A4)?
Its IC50 is over 30 µM.

And the IC50 (CYP2C19)?
The IC50 was 6.1 µM.

What about the clearance [7] of the same compound?
Its clearance is 13 mL/min/kg.

And the half-life [7]?
The half-life was 3 h.

What about the “brain AUC” value ([8]; rat CNS PO PBL (0−6 h)) of the same compound?
Its value is 18 415 ng·h/mL.

What about the Kp at 6 h ([8]; rat, brain/plasma, po) of the same compound?
Its Kp at 6 h is 2.1.

And the AUC ([8]; rat, plasma, po)?
The AUC was 8770 ng·h/mL.

What about the “substrate for P-glycoprotein” value (P-glycoprotein (Pgp)) of the same compound?
The value was “not a substrate”.

And the Papp A→B (P-glycoprotein (Pgp); not told)?
The Papp A→B was 24 ×10⁻⁶ cm/s.

What about the Papp B→A (P-glycoprotein (Pgp); not told) of the same compound?
Its Papp B→A is 14 ×10⁻⁶ cm/s.

And the “activity at mGlu6” value (mGlu6)?
Its value is “functionally interact (with equipotency)”.

What about the “activity against wider panel of targets” value [9] of the same compound?
Its value is “inactive”.

What about the “activity against MAO-B” value [10] of the same compound?
The value was 330 nM.

What about the “activity against 96 kinase targets” value [11] of the same compound?
The value was under 30%.

What about the IC50 [12] of the same compound?
The IC50 was over 100 µM.

And the mini-AMES result (TA98 and TA100)?
The mini-AMES result was “negative”.

What about the “CYP1A2 induction Emax” value (CYP1A2 [13]) of the same compound?
The value was 104 fold-induction.

What about the EC50 (CYP1A2 [13]; human) of the same compound?
The EC50 was 9.8 µM.

What about the major metabolite (Met ID) of the same compound?
Its major metabolite is “oxodefluorination”.

What about the AUC (in vivo [14]) of the same compound?
Its AUC is 608 ng·h/mL.

And the MRT (in vivo [14])?
The MRT was 2.2 h.

What about the Vd (in vivo [14]) of the same compound?
Its Vd is 4 L/kg.

What about the clearance (in vivo [14]) of the same compound?
The clearance was 29 mL/min/kg.

What about the half-life (in vivo [14]) of the same compound?
Its half-life is 1.52 h.

And the bioavailability (in vivo [15]; in vivo)?
The bioavailability was 95%.

What about the AUC (in vivo [15]; plasma) of the same compound?
Its AUC is 7420 ng·h/mL.

What about the Cmax (in vivo [15]; plasma) of the same compound?
Its Cmax is 875 ng/mL.

What about the Tmax (in vivo [15]; plasma) of the same compound?
The Tmax was 2 h.
